One assay deals with HCT116 cells. Nature of the assay: Cell cycle analysis, EdU and propidium iodide flow cytometry assay. The format is cell-based, human. To be noted: 24 hrs nutlin-3a treatment. The protocol: Cell cycle analysis: Click-iT™ Plus EdU Alexa Fluor™ 488 Flow Cytometry Assay Kit (Life technologies) was used according to manufacturer's protocol. Briefly, cells were plated a day prior to nutlin-3a or vehicle treatment. After 24 hrs of chemical treatment, cells in S-phase were labeled with […] EdU solution for 2 hrs. FxCycle™ PI/RNase Staining Solution (Life technologies) was used for PI staining. After the staining, cells were analyzed by NovoCyte Quanteon Flow Cytometer Systems (Agilent, Santa Clara, CA, USA).
The PI assay detects total DNA amounts for G1 and G2-phase comparison. The EdU assay labels newly synthesized DNA to detect S-phase.
Background: A flow cytometer gives signals particle by particle.

The subject of the next assay is p53 pathway. The following applies: U2OS cells (wild-type TP53); 10 μM nutlin-3a; 5 μM, 10 μM and 20 μM tested.

The source of these data is US20260193642A1, “DIRECT MEASUREMENT OF ENGINEERED CANCER MUTATIONS AND THEIR TRANSCRIPTIONAL PHENOTYPES IN SINGLE CELLS” (The Board of Trustees of the Leland Stanford Junior …, priority 2022, published 2026).

Source text for p53 pathway: Cell culture conditions: HEK293T (ATCC CRL-11268) and MMNK-1 (JCRB1554) cells were maintained in Dulbecco's modified Eagle's medium (DMEM) with 10% fetal bovine serum (FBS). HCT116 (ATCC CCL-247) cells and U2OS (ATCC HTB-96) were maintained in McCoy's 5A modified medium supplemented with 10% FBS. […] K562 (ATCC CCL-243) cells were maintained in RPMI 1640 with 10% FBS. Cells were authenticated by STR profiling. All cell lines were confirmed by PCR to be free of mycoplasma contamination.
HCT116 and U2OS human cell lines were used for this study. Both cell lines have wild-type TP53 which was independently confirmed.

In the case of `COc1ccc(C2=N[C@@H](c3ccc(Cl)cc3)[C@@H](c3ccc(Cl)cc3)N2C(=O)N2CCNC(=O)C2)c(OC(C)C)c1` [nutlin-3a], the cell cycle arrest entry in the assay on HCT116 cells (HCT116 clonal cells with TP53 I195T mutation, FIG. 4C, P=0.95) is on record as “did not undergo arrest”; with HCT116 cells (HCT116 clonal cells with TP53 Y220C mutation, FIG. 4C, P=0.95) it was “did not undergo arrest”; in the assay with HCT116 cells (wild-type HCT116 cells, FIG. 4c, P<2.2e-16), “arrested”. In addition, the p53 pathway activation result with p53 pathway is on record as “successful p53 pathway activation”.
